Measurements as given in PubChem BioAssay (NCI).
Where “and” joins values, the source holds several entries; their conditions need not be identical. Equal values may be shown once.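 1) Cells in 96-well plates. 2) Compound, 48 h, 5 concentrations. 3) Linear interpolation between surrounding doses. 4) Unreached endpoint = highest concentration. The concentration for 50% growth inhibition is given as GI50. TGI: total growth inhibition.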

Key:
Test in all cases: NCI-60 cell line screen, 48 h
[1] = system: A549 NSCLC
[2] = system: HCT-15 colon
[3] = system: HOP-62 NSCLC
[4] = system: HS 578T breast
[5] = system: MOLT-4 leukemia
[6] = system: NCI/ADR-RES ovarian
[7] = system: RXF 393 renal
[8] = system: SK-MEL-5 melanoma
[9] = system: SR leukemia
[10] = system: SW-620 colon

Compound	GI50 [1]	TGI [1]	GI50 [2]	TGI [2]	GI50 [3]	TGI [3]	GI50 [4]	TGI [4]	GI50 [5]	TGI [5]	GI50 [6]	TGI [6]	GI50 [7]	TGI [7]	GI50 [8]	TGI [8]	GI50 [9]	TGI [9]	GI50 [10]	TGI [10]
O=C(Nc1cccc(NS(=O)(=O)c2ccc(F)cc2)c1)c1ccc(-c2ccccc2)cc1	3.34 µM	> 100 µM	2.86 µM	18.3 µM	4.66 µM	37.2 µM	4.68 µM	52.5 µM	3.05 µM	14.5 µM	2.75 µM	11.3 µM	3.65 µM	20.7 µM	1.88 µM	3.74 µM	2.51 µM	10.1 µM	4.04 µM	35.4 µM
O=C1NC(=O)[C@@H](c2cn3c4c(cccc24)CCC3)[C@@H]1c1c[nH]c2ccccc12	0.617 µM and 0.516 µM	> 10 µM and 16.4 µM	0.338 µM and 0.505 µM	> 10 µM and 14.9 µM	0.423 µM and 0.465 µM	> 10 µM and 16.8 µM	0.343 µM and 0.323 µM	> 10 µM and 20.9 µM	0.717 µM and 0.891 µM	> 10 µM and 18.1 µM	0.327 µM and 0.369 µM	> 4.71 µM and 9.55 µM	0.294 µM and 0.332 µM	> 10 µM and 2.91 µM	0.266 µM and 0.289 µM	1.36 µM and 3.07 µM	0.246 µM and 0.377 µM	> 10 µM and 27.6 µM	0.391 µM and 0.354 µM	> 10 µM and 15.2 µM
CCOC(=O)c1sc2ncn(Cc3cccc(Cl)c3)c(=O)c2c1C	16.4 µM	30 µM	14.1 µM	27 µM	12 µM	24.4 µM	17.5 µM	31.3 µM	13.2 µM	25.9 µM	7.78 µM	20.7 µM	16.6 µM	30.2 µM	14.9 µM	28.1 µM	3.33 µM	12.7 µM	18.1 µM	32 µM
COC(=O)c1ccc(-c2nc3cc(F)c(F)cc3nc2C#N)cc1	10.8 µM	25.6 µM	1.59 µM	6.47 µM	9.9 µM	18 µM	1.57 µM	4.79 µM	3.27 µM	12.3 µM	4.21 µM	10.4 µM	8.53 µM	17.6 µM	6.87 µM	13.7 µM	1.25 µM	2.77 µM	4.66 µM	16.8 µM
Cc1cc(Cl)ccc1NC(=O)/C(Cc1nc2ccc(C(=O)c3ccccc3)cc2[nH]c1=O)=N/NC(=O)c1ccncc1	–	> 100 µM	–	> 100 µM	–	> 100 µM	–	> 100 µM	–	> 100 µM	–	> 100 µM	–	> 100 µM	–	> 100 µM	–	> 100 µM	–	> 100 µM
C[C@@H](Oc1cc(-c2cnn(C3CCNCC3)c2)cnc1N)c1c(Cl)ccc(F)c1Cl	0.947 µM	> 10 µM	2.4 µM	> 10 µM	2.57 µM	> 10 µM	0.966 µM	6.25 µM	0.701 µM	4.39 µM	7.38 µM	> 10 µM	1.36 µM	3.11 µM	1.47 µM	2.84 µM	0.0453 µM	1.09 µM	0.435 µM	> 10 µM
CCN(Cc1ccc(F)cc1F)c1ccc(CO)c(Cl)c1	1.85 µM	21.2 µM	11.2 µM	30.5 µM	1.84 µM	20.2 µM	18.9 µM	> 72.8 µM	19.7 µM	> 71.5 µM	12.6 µM	32 µM	2.26 µM	14.5 µM	5.75 µM	20.5 µM	23.2 µM	82.1 µM	0.917 µM	> 45.6 µM
CC(C)(C)[Si](C)(C)OC1[C@@H](O[Si](C)(C)C(C)(C)C)[C@@H](CNC(=O)NC(=O)NC(=O)CI)O[C@H]1n1cnc2c(NC(=O)Nc3ccccc3)ncnc21 (stereo not given in full)	1.57 µM	11.9 µM	9.81 µM	31.8 µM	0.392 µM	1.28 µM	2.5 µM	17.8 µM	0.718 µM	3.12 µM	0.909 µM	3.41 µM	0.713 µM	3.11 µM	8.73 µM	16.3 µM	0.0447 µM	0.159 µM	3.38 µM	12.6 µM
COC(=O)C/C(C)=C/[C@@H](O)[C@H]1O[C@@H]2CC/C(Cl)=C/C/C=C(/C)[C@H](OC(C)=O)CC(=O)O[C@@H]1C2	10 µM	> 25 µM	8.01 µM	> 25 µM	2.5 µM	7.17 µM	0.546 µM	2.14 µM	6.15 µM	19.8 µM	9.91 µM	> 25 µM	2.34 µM	9.23 µM	0.875 µM	3.42 µM	0.813 µM	3.19 µM	19.1 µM	> 25 µM
c1ccc(Oc2c3ccccc3nc3ccccc23)cc1	4.62 µM	27 µM	3.06 µM	12.3 µM	3.53 µM	12.3 µM	6.99 µM	> 100 µM	0.82 µM	48 µM	7.32 µM	27 µM	3.6 µM	15.1 µM	3.5 µM	11.7 µM	2.97 µM	54.3 µM	1.64 µM	17.5 µM
O=P(Oc1ccccc1)(Oc1ccccc1)C(O)c1ccccc1 (stereo not given)	> 100 µM	> 100 µM	> 100 µM	> 100 µM	39.3 µM	> 100 µM	45.9 µM	> 100 µM	> 100 µM	> 100 µM	> 100 µM	> 100 µM	60.6 µM	> 100 µM	53.1 µM	> 100 µM	62.3 µM	> 100 µM	> 100 µM	> 100 µM
